Each block holds one molecule with its values, some of them ahead of it. Where a SMILES comes first, the peptide text is derived from it. The star is where a group is joined. Boc = CC(C)(C)OC(=O)*
Legend:
Hdmx–p53 complex = biological target: T1, Hdmx–p53 complex (Homo sapiens, UniProt O15151); assay: Competitive ELISA, Hdmx–p53 inhibition; assay type: biochemical; conditions: for % inhibition at 320 μM / activity against the Hdmx–p53 complex (in words): ELISA; for % inhibition at 320 μM: Hdmx (200 nM), peptide 320 μM
T1 sequence (O15151 1-189): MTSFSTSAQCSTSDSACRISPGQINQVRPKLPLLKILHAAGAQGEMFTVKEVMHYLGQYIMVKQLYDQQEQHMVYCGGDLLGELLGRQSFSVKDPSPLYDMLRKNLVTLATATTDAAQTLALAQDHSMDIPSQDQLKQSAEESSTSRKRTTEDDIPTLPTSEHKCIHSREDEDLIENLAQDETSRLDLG

Hdm2–p53 complex = Hdm2–p53 complex (Homo sapiens, UniProt Q00987); assay: Competitive ELISA, Hdm2–p53 inhibition; assay type: biochemical; conditions: for % Inhibition at 560 μM: ELISA, Hdm2 (1.5 μM), peptide 560 μM
Sequence of Hdm2–p53 complex (Q00987 1-188, one chain of several): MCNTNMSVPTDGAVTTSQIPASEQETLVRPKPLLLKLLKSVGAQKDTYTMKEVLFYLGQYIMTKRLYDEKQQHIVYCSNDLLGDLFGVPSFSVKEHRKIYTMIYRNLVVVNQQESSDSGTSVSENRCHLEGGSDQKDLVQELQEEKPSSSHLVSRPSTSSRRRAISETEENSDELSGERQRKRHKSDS

Molecule: CC(C)(C)OC(=O)N[C@@H](CCCNC(=N)N)C(=O)N[C@@H](Cc1c[nH]c2ccccc12)C(=O)N[C@@H](Cc1ccccc1)C(N)=O [Compound 5a, Boc–RWF–NH2] (Boc-Arg-Trp-Phe-NH2)
% inhibition at 320 μM (Hdmx–p53 complex): No Inhibition

Molecule: CC(C)C[C@@H]1NC(=O)[C@H](CC(=O)O)NC(=O)[C@H](C)NC(=O)[C@H](Cc2ccccc2)NC(=O)[C@H](Cc2c[nH]c3ccccc23)NC(=O)[C@H](CCCNC(=N)N)NC1=O [Compound 8, c-(ADLRWF)] (cyclo(ADLRWF))
inhibition at 320 µM (Hdmx–p53 complex; read-out: % inhibition at 320 μM): 12 ± 1%

Molecule: CC(C)CNC(=O)[C@H](Cc1ccccc1)NC(=O)[C@H](Cc1c[nH]c2ccccc12)NC(=O)[C@H](CCCNC(=N)N)NC(=O)OCc1ccccc1 [Compound 12F]
activity against Hdm2–p53 complex (Hdm2–p53 complex; concentration not given): no activity

Molecule: Boc–DLRWF–N(CH2)5 [Compound 7b]
activity against the Hdmx–p53 complex (in words) (Hdmx–p53 complex): dramatic reduction of activity
% inhibition at 320 μM (Hdmx–p53 complex): 13 ± 1%

Molecule: Boc–FYYV–N(CH2)5 [Compound 2a]
% Inhibition at 560 μM (Hdm2–p53 complex): No Inhibition
activity toward Hdm2–p53 complex (Hdm2–p53 complex; at concentrations of up to 560 μM): no activity

Now from value to molecule:

antagonism of the Hdmx–p53 complex (Hdmx–p53 complex; wide range of concentrations (up to 1 mM)): did not antagonize
level of activity lower than that of the decapeptide control (Hdm2–p53 complex; Hdm2–p53 ELISA, versus control ETFSDLWKLL): approximately 13 fold
Molecule: CC[C@H](C)[C@@H]1NC(=O)[C@H](C)NC(=O)[C@H](C(C)C)NC(=O)[C@H](Cc2ccc(O)cc2)NC(=O)[C@H](Cc2ccc(O)cc2)NC(=O)[C@H](Cc2ccccc2)NC1=O [Compound 3, c-(AIFYYV)] (cyclo(AIFYYV))

% inhibition at 320 μM (Hdmx–p53 complex): No Inhibition
Molecule: Boc-DLRWF-NH2 [Compound 7a]

% Inhibition at 560 μM (Hdm2–p53 complex): 16 ± 1%
Molecule: Boc–IFYYV–N(CH2)5 [Compound 2b]

activity against the Hdmx–p53 complex (in words) (Hdmx–p53 complex): measurable inhibition
% inhibition at 320 μM (Hdmx–p53 complex): 13 ± 1%
Molecule: Boc–WF–N(CH2)5 [Compound 4b]

From publication PMC2922946 (Bioorganic & medicinal chemistry, 2010)
